In US8642640B2, “1-phenylpyrrole derivatives” (Exelixis, Inc., priority 2008, dated 2014):

Biological target: T1, human mineralocorticoid receptor (hMR) (Homo sapiens, UniProt P08235)
T1 construct: expressed in transfected cells; host or cells: HEK293
T1 sequence (P08235 726-964 limits assumed): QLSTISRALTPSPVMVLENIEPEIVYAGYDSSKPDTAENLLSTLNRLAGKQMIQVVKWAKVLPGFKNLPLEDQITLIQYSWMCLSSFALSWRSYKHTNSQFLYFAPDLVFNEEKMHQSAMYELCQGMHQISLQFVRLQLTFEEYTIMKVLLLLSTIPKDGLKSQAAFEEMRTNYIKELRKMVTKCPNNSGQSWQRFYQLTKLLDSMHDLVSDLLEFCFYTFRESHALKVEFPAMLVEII
Assay: GAL4-hMR-LBD luciferase reporter assay in HEK293 cells with 1 nM aldosterone (Test Example 1);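 for Imax: 0% is DMSO-only control and 100% is 1 nM aldosterone alone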
Format: cell-based
Conditions: for IC50: concentration showing Imax/2, HEK293, GAL4-hMR-LBD, 1 nM aldosterone, overnight, read-out: ICmax50; for Emax: HEK293, read-out: Imax
Experimental: A plasmid pM-hMR-LBD expressing GAL4-hMR receptor, which has a ligand binding domain (LBD, corresponding to approximately 308 amino acids at the carboxy terminus) of human mineralocorticoid receptor (hMR, NM_000901) bonded to a DNA binding domain of yeast transcription factor GAL4 (corresponding to 147 amino acids at the amino terminus), was prepared. Reporter assay was conducted by using a reporter plasmid (such as plasmid pFR-Luc of […] CLONING SYSTEMS) including a luciferase gene, having a sequence (UAS sequence) which binds to the DNA binding domain of GAL4.
The plasmid pM-hMR-LBD and the reporter plasmid as obtained above were gene transferred into renal cell line HEK293 of human fetus by lipofection. On the next day, cells were collected by trypsin treatment, and dispensed with DMEM culture medium containing 5% of FBS treated by activated charcoal, to a white 96-well plate (Costar) with the amount of 95 microliter per well.
The test compounds were used as dissolved in dimethyl sulfoxide at a predetermined concentration, and the test compounds suitably diluted with culture media were added to the cells on the white 96-well plate so that the final concentration becomes 0.1%. […] After the addition, cultivation was carried out overnight.
On the next day, the culture media was removed, and then luciferase substrate (Wako Pure Chemical Industries, Ltd.) was prepared in accordance with the attached document and were added to each well by 50 microliters. Stirring was conducted for approximately 30 minutes, and the amount of luminescence was measured for each well by using Analyst (Molecular Devices), to obtain luciferase activity. A graph which plots relative luciferase activity values, when the luciferase activity value of Control group 1 was taken as 0% and the luciferase activity value of Control group 2 was taken as 100%, for each of the amount of the test compound addition group was made.

SMILES | IC50 | Emax
Cc1c(C(=O)Nc2ccc(S(C)(=O)=O)cc2)cc(C[C@H](C)O)n1-c1ccc(Cl)cc1OC(F)F (single isomer, unassigned) [Example 11 - isomer B] | > 1000 nM | –
Cc1c(C(=O)Nc2ccc(S(N)(=O)=O)c(Cl)c2)cc(C[C@H](C)O)n1-c1ccc(F)cc1Cl (single isomer, unassigned) [Example 49 - isomer B] | 4.5 nM | 104%
Cc1c(C(=O)Nc2ccc(S(C)(=O)=O)cc2)cc(CC(=O)N(C)C)n1-c1ccc(Cl)cc1C(F)(F)F [Example 61, 1-[4-Chloro-2-(trifluoromethyl)phenyl]-5-[2-(dimethylamino)-2-oxoethyl]-2-methyl-N-[4-(methylsulfonyl)phenyl]-1H-pyrrole-3-carboxamide] | 5.5 nM | 115%
Cc1c(C(=O)Nc2ccc(S(C)(=O)=O)cc2)cc(C[C@H](C)O)n1-c1ccc(F)cc1Cl (single isomer, unassigned) [Example 40 - isomer B] | > 1000 nM | –
Cc1c(C(=O)Nc2ccc(S(C)(=O)=O)cc2)cc(C[C@H](C)O)n1-c1ccc(Cl)cc1Cl (single isomer, unassigned) [Example 43 - isomer B] | > 1000 nM | –
Cc1c(C(=O)Nc2ccc(S(N)(=O)=O)c(Cl)c2)cc(C[C@H](C)O)n1-c1ccc(F)cc1C(F)(F)F (single isomer, unassigned) [Example 12 - isomer B] | > 1000 nM | –
Cc1c(C(=O)Nc2ccc(S(C)(=O)=O)cc2)cc(C[C@H](C)O)n1-c1ccc(Cl)cc1-c1ccc(F)cc1 [Example 50, 1-(5-Chloro-4′-fluorobiphenyl-2-yl)-5-[(2S)-2-hydroxypropyl]-2-methyl-N-[4-(methylsulfonyl)phenyl]-1H-pyrrole-3-carboxamide] | 2.7 nM | 114%
Cc1cc(Cl)ccc1-n1c(CCF)cc(C(=O)Nc2ccc(S(C)(=O)=O)cc2)c1C (single isomer, unassigned) [Example 51 - isomer B, 1-(4-Chloro-2-methylphenyl)-5-(2-fluoroethyl)-2-methyl-N-[4-(methylsulfonyl)phenyl]-1H-pyrrole-3-carboxamide] | > 1000 nM | –
Cc1c(C(=O)Nc2ccc(S(C)(=O)=O)cc2)cc(C[C@H](C)O)n1-c1ccc(F)cc1C(F)(F)F (single isomer, unassigned) [Example 5 - isomer B] | > 1000 nM | –
CCc1c(C(=O)Nc2ccc(S(C)(=O)=O)cc2)cc(C[C@H](C)O)n1-c1ccc(F)cc1Cl [Example 44, 1-(2-Chloro-4-fluorophenyl)-2-ethyl-5-[(2S)-2-hydroxypropyl]-N-[4-(methylsulfonyl)phenyl]-1H-pyrrole-3-carboxamide] | 24 nM | 111%
Cc1c(C(=O)Nc2ccc(S(C)(=O)=O)cc2)cc(C[C@H](C)O)n1-c1ccc(Cl)cc1OC(F)(F)F [Example 42, 1-[4-Chloro-2-(trifluoromethoxy)phenyl]-5-[(2S)-2-hydroxypropyl]-2-methyl-N-[4-(methylsulfonyl)phenyl]-1H-pyrrole-3-carboxamide] | 4.8 nM | 110%
Cc1c(C(=O)Nc2ccc(S(C)(=O)=O)cc2)cc(CCF)n1-c1ccc(F)cc1OC(F)F [Example 54, 1-[2-(Difluoromethoxy)-4-fluorophenyl]-5-(2-fluoroethyl)-2-methyl-N-[4-(methylsulfonyl)phenyl]-1H-pyrrole-3-carboxamide] | 14 nM | 75%
Cc1c(C(=O)Nc2ccc(S(C)(=O)=O)cc2)cc(C[C@H](C)O)n1-c1ccc(Cl)cc1-c1ccc(F)cc1 (single isomer, unassigned) [Example 50 - isomer A] | > 1000 nM | –
Cc1c(C(=O)Nc2ccc(S(C)(=O)=O)cc2)cc(C[C@H](C)O)n1-c1ccc(Cl)cc1OC(F)F [Example 11, 1-[4-Chloro-2-(difluoromethoxy)phenyl]-5-[(2S)-2-hydroxypropyl]-2-methyl-N-[4-(methylsulfonyl)phenyl]-1H-pyrrole-3-carboxamide] | 13 nM | 107%
